Source: patent US20160075680A1, “MODIFIED SOLID SUPPORT FOR THE SYNTHESIS OF OLIGONUCLEOTIDES” (FUNDACIÓN IMDEA NANOCIENCIA, priority 2013, published 2016)

Assay: Comparative in vitro release of Oligo-3 and Oligo-4 from gold nanoparticles with glutathione, followed by fluorescence
Details: PBS, glutathione final concentration 1 mM, Ex: 470, Em: 517 nm
Description: To a solution of modified gold nanoparticles prepared in Example 9 in PBS bearing the Oligo-3 or Oligo-4 was added glutathione (final concentration 1 mM). The in vitro release of the oligonucleotides bearing the fluorescein molecule is followed by fluorescence. The fluorescence was recorded at different periods of time. […] Particularly, in the case of Oligo-3, the fluorescence increases fast due to the release of the oligonucleotide from the gold nanoparticle in the presence of glutathione at 1 mM. The fluorescence is quenched when fluorescein is close to the gold nanoparticle, but it increases over time due to the release of the fluorescent oligonucleotide in the presence of glutathione. […] Ex: 470, Em: 517 nm.

Substance	in vitro release of the fluorescein oligonucleotide from gold nanoparticles
Oligo-3: TTTTTTTTTT (SEQ ID NO: 3), fluorescein at position 5′ and the modification herein reported at position 3′ (5' fluorescein; 3' modification; Oligonucleotide sequence as in Oligo-3 and Oligo-4)	release takes place efficiently
Oligo-4: TTTTTTTTTT (SEQ ID NO: 3), fluorescein at 5′, dithiolane group at 3′ but not the disulfide group; comparative (5' fluorescein; 3' dithiolane; Oligonucleotide sequence as in Oligo-3 and Oligo-4)	inefficient release
